According to patent US7745657B2, “D-homoandrosta-17-yl carbamate derivatives as selective glucocorticoid receptor ligands” (Merck Sharp & Dohme Corp., priority 2005, dated 2010):

Molecular target: T1, human GR (Homo sapiens, UniProt P04150)
T1 construct: U937 cells contain an endogenous glucocorticoid receptor (GR); endogenous in cells; host or cells: U937 cells stably transfected with the TNF-alpha promoter / beta-lactamase reporter
T1 sequence (P04150 1-777): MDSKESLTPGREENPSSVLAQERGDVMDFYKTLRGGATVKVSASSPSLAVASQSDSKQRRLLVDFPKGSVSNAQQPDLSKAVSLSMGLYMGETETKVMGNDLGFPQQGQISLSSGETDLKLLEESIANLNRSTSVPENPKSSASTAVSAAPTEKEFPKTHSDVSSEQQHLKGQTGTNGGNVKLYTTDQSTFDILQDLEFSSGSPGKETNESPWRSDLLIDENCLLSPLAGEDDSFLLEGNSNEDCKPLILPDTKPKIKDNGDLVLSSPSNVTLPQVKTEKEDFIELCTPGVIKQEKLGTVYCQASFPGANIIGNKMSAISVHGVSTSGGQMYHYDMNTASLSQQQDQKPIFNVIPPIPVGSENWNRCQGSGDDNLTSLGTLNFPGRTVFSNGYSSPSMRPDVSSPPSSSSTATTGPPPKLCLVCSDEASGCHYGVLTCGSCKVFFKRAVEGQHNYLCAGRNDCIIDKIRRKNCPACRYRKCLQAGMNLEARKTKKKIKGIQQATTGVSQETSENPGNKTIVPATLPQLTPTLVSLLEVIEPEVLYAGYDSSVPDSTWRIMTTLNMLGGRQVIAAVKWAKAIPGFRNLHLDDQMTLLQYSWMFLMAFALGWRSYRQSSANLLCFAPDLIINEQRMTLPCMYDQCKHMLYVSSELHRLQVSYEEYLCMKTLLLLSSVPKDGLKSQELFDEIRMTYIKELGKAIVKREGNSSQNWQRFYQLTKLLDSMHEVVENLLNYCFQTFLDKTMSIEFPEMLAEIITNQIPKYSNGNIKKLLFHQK
Test: Transrepression assay, TNFα-β-lactamase reporter gene in U937 cells
Format: cell-based
Conditions: U-937, PMA/LPS stimulated, activity repressed by 100 nM dexamethasone alone set as 100%, read-out: maximal activity
Excerpt: This assay assesses the ability of test compounds to control transcription from the TNFα-β-lactamase reporter gene in U937 cells, a human myelomonocytic leukemia cell line that naturally expresses the human GR. The assay measures compound dependent-repression of the TNFα promoter linked to a reporter gene.
The human U937 cells that had been stablely transfected with the TNF-αpromoter driving β-lactamase are used for this assay. U937 cells contain an endogenous glucocorticoid receptor (GR). Cells are maintained in RPMI 1640 Growth medium (Gibco Cat#11875-093) containing 25 mM HEPES, 10% FBS, 2 mM L-Glutamine, 1 mM Sodium pyruvate, 25 μg/ml Gentamicin (Gibco Cat#15710-064), 1:1000 2-Mercaptoethanol (Gibco Cat#21985-023) and 0.8 mg/ml G418 (Gibco Cat#10131-027). The density of the cells in the flask needs to be about 1×10^6−3×10^6/ml at the time of harvest. Usually, the cells are split to 1.2˜1.4×10^5/ml (1:10) 3 days prior to the assay. 50,000 cells/well are plated in 96 well black-walled plates the day of assay. Test compounds are added 10 μL/well, and cells are incubated at 37° C. for 30˜45 min. For assaying compounds, first dilute 1:10 in DMSO to make 1 mM, then further dilute 1:100 in medium to make 10× stock prior to adding to the cells. Add 50 ng/ml PMA (Sigma, cat# P8139) 10 μL/well to a final concentration 5 ng/ml, and 1 μg/ml LPS (Sigma, cat# L4130) 10 μL/well to a final concentration 100 ng/ml. Incubate cells at 37° C. overnight for ˜18 hr. PMA is stored frozen as 100 μg/ml stock in DMSO. Dilute 1:10 in DMSO for a working stock of 10 μg/ml and store at −20 C. For assaying, dilute the 10 μg/ml working stock 1:200 in medium to make a 10× solution (50 ng/ml). Store frozen LPS at 1 mg/ml in PBS, dilute 1:1000 in medium to make 10× (1 μg/ml) for the assay. Add 6× loading buffer (CCF2-AM) 20 μL/well, and incubate at room temperature for 70˜90 min. […] The activity repressed by 100 nM dexamethasone alone is set as 100% activity.

| SMILES | Emax [%] |
| --- | --- |
| CC1CC2C3CCC4=CC(=O)C=CC4(C)C3(F)C(OC(=O)C(F)(F)F)CC2(C)C(=O)C1(CO)OC(=O)NC12CC3CC(CC(C3)C1)C2 [Example 7, (11β,16β,17α)-9-fluoro-11-trifluoroacetoxy-16-methyl-3,17a-dioxo-17-(hydroxymethyl)-D-homoandrostra-1,4-dien-17-yl-(1-adamantyl)carbamate] | > 5 |
| CC1CC2C3CCC4=CC(=O)C=CC4(C)C3(F)C(O)CC2(C)C(=O)C1(CO)OC(=O)NC1CCCCC1 [Example 9, (11β,16β,17α)-9-fluoro-11-hydroxy-16-methyl-3,17a-dioxo-17-(hydroxymethyl)-D-homoandrosta-1,4-dien-17-yl-(cyclohexyl)carbamate] | > 5 |
| CC(=O)OCC1(OC(=O)NC23CC4CC(CC(C4)C2)C3)C(=O)C2(C)CC(O)C3(F)C(CCC4=CC(=O)C=CC43C)C2CC1C [Example 6, (11β,16β,17α)-9-fluoro-11-hydroxy-16-methyl-3,17a-dioxo-17-[(acetyloxy)methyl]-D-homoandrosta-1,4-dien-17-yl-(1-adamantyl)carbamate] | > 5 |
| CCCC(C)NC(=O)OC1(CO)C(=O)C2(C)CC(O)C3(F)C(CCC4=CC(=O)C=CC43C)C2CC1C [Example 2, (11β,16β,17α)-9-fluoro-11-hydroxy-16-methyl-3,17a-dioxo-17-(hydroxymethyl)-D-homoandrosta-1,4-dien-17-yl-(2-pentyl)carbamate] | > 5 |
| CCCC(C)CNC(=O)OC1(CO)C(=O)C2(C)CC(O)C3(F)C(CCC4=CC(=O)C=CC43C)C2CC1C [Example 3, (11β,16β,17α)-9-fluoro-11-hydroxy-16-methyl-3,17a-dioxo-17-(hydroxymethyl)-D-homoandrosta-1,4-dien-17-yl-(2-methyl-pentyl)carbamate] | > 5 |
| C[C@H]1CC2C3CCC4=CC(=O)C=C[C@]4(C)[C@@]3(F)[C@@H](O)C[C@]2(C)C(=O)[C@]1(CO)OC(=O)NC12CC3CC(CC(C3)C1)C2 (stereo partly drawn) [Example 1, (11β,16β,17α)-9-fluoro-11-hydroxy-16-methyl-3,17a-dioxo-17-(hydroxymethyl)-d-homoandrosta-1,4-dien-17-yl-(1-adamantyl)carbamate] | > 5 |
| CC(=O)OCC1(OC(=O)NC23CC4CC(CC(C4)C2)C3)C(=O)C2(C)CC(OC(=O)C(F)(F)F)C3(F)C(CCC4=CC(=O)C=CC43C)C2CC1C [Example 5, (11β,16β,17α)-9-fluoro-11-trifluoroacetoxy-16-methyl-3,17a-dioxo-17-[(acety1oxy)methy1]-D-homoandrosta-1,4-dien-17-yl-(1-adamantyl)carbamate] | > 5 |
